From US7820699B2, “Cyclic amines” (Hoffmann-La Roche Inc., priority 2005, dated 2010)

Each compound was assayed against T1, human factor Xa (Homo sapiens, UniProt P00742) (assay: chromogenic peptide substrate assay, inhibition of factor Xa). Details: human factor Xa 3 nM, chromogenic substrate S-2222, pH 7.8, room temperature; Ki from IC50 by Cheng-Prusoff.
T1 construct: purchased Enzyme Research Laboratories
Assay type: biochemical
Procedure: Factor Xa activity was measured spectrophotometrically in microtiter plates in a final volume of 150 μl using the following conditions: Inhibition of human factor Xa (Enzyme Research Laboratories) was tested at an enzyme concentration of 3 nM using the chromogenic substrate S-2222 (Chromogenix AB, Molndal, Sweden) at […]. The reaction kinetics of the enzyme and the substrate were linear with both time and the enzyme concentration. The inhibitors were dissolved in DMSO and tested at various concentrations up to 100 μM. The inhibitors were diluted using HNPT buffer consisting of HEPES 100 mM, NaCl 140 mM, PEG 6000 0.1% and Tween 80 0.02%, pH 7.8. The cleavage of S-2222 by human factor Xa was followed at 405 nm for 5 minutes at room temperature. The velocity of the reaction was determined by the autoreader from the slope of the linear regression fit to 7 time points (1 minute). The initial velocity for each inhibitor concentration was determined by the slope of at least 4 time points in the linear phase by a linear regression fit […]. Apparent dissociation constants Ki were calculated according to Cheng and Prusoff [Cheng, Y. C.; Prusoff, W. H. Relationship between the inhibition constant (Ki) and the concentration of the inhibitor that causes 50 percent inhibition (IC50) of an enzyme reaction. Biochem. Pharmacol. 1973, 22, 3099-3108.] based on the IC50 and the respective Km, determined previously (Ki=IC50/(1+S/Km)). The Km for the substrate used was determined under the conditions of the test with at least 5 substrate concentrations ranging from 0.5 to 15 times Km. [Lottenberg R, Hall J A, Blinder M, Binder E P, Jackson C M., The action of thrombin on peptide p-nitroanilide substrates. Substrate selectivity and examination of hydrolysis under different reaction conditions. Biochim Biophys Acta. 1983 Feb. 15; 742(3):539-57]. According to Eadie [Eadie G. S. The inhibition of cholinesterase by physostigmine and prostigmine. J. Biol. Chem. 1942, 146, 85-93.], the Km for S-2222 amounted to 613 μM.

T1 sequence (P00742 235-488 limits assumed): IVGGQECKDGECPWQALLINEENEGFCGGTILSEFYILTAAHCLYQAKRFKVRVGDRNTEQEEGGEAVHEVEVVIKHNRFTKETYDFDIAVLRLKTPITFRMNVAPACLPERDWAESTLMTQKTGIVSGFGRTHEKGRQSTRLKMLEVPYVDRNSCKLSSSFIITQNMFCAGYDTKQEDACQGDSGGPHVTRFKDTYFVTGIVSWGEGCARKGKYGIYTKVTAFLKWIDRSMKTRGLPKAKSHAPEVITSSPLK
T1 sequence (P00742 41-179 partner limits assumed): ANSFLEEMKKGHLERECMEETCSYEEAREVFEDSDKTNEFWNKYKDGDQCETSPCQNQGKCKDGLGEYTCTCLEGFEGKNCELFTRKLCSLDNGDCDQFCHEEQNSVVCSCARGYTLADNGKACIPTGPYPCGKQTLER

| SMILES | Ki [µM] |
| --- | --- |
| CC(C(=O)Nc1ccc(-n2ccccc2=O)cc1F)N1CC[C@@H](NC(=O)c2ccc(Cl)s2)C1 (stereo partly drawn) [Example 6, 5-chloro-thiophene-2-carboxylic acid ((R)-1-{1-[2-fluoro-4-(2-oxo-pyridin-1-yl)-phenylcarbamoyl]-ethyl}-pyrrolidin-3-yl)-amide] | 0.017 |
| CO[C@H]1CN(CC(=O)Nc2ccc(N3CCOCC3=O)cc2F)C[C@@H]1NC(=O)c1ccc(Cl)s1 [Example 26, 5-chloro-thiophene-2-carboxylic acid ((3S,4S)-1-{[2-fluoro-4-(3-oxo-morpholin-4-yl)-phenylcar-bamoyl]-methyl}-4-methoxy-pyrrolidin-3-yl)-amide] | 0.014 |
| O=C(NC[C@H]1CCN(C(=O)Nc2ccc(-n3ccccc3=O)cc2F)C1)c1ccc(Cl)s1 [Example 54, (R)-3-{[(5-chloro-thiophene-2-carbonyl)-amino]-methyl}-pyrrolidine-1-carboxylic acid[2-fluoro-4-(2-oxo-2H-pyridin-1-yl)-phenyl]-amide] | 0.013 |
| O=C(NC[C@@H]1CN(C(=O)Nc2ccc(-n3ccccc3=O)cc2F)C[C@H]1C(F)(F)F)c1ccc(Cl)s1 [Example 77, (3R,4S)-3-{[(5-chloro-thiophene-2-carbonyl)-amino]-methyl}-4-trifluoromethyl-pyrrolidine-1-carboxy-lic acid[2-fluoro-4-(2-oxo-2H-pyridin-1-yl)-phenyl]-amide] | 0.008 |
| CN(C1CN(C(=O)Nc2ccc(-n3ccccc3=O)cc2F)C[C@H]1CNC(=O)c1ccc(Cl)s1)S(C)(=O)=O (stereo partly drawn) [Example 85, (R)-3-{[(5-chloro-thiophene-2-carbonyl)-amino]-methyl}-4-(methanesulfonyl-methyl-amino)-pyrrolidine-1-carboxylic acid[2-fluoro-4-(2-oxo-2H-pyridin-1-yl)-phenyl]-amide] | 0.012 |
